Reference: US20080139804A1, “Photosensitive Compounds” (priority 2005, published 2008)
Values joined by “and” are separate entries in the source; they are usually repeats but may differ in a detail not shown here. Identical values can stand only once. “Also recorded” adds a separate entry of the source.

What was measured:
[1] = patients administered therewith; cited from earlier work
cancer cells = conditions: photo-irradiation; cited from earlier work
[2] = In vivo pharmacokinetics of zinc coproporphyrin-I in HeLa tumor-bearing nude mice (tissue fluorescence); design: species or system (BALB/c) nude mouse; conditions: 25 mg/kg intravenous in physiological saline, back and muscle, excitation 405 nm, fluorescence 580 nm
Procedure: In the back of a (BALB/c) nude mouse, 5×10^6 HeLa cells in 0.1 ml were transplanted intradermally. When the tumor grew to 12-17 mm diameter, 25 mg/kg of zinc coproporphyrin-I in physiological saline was intravenously injected, and mice were sacrificed at each time shown in FIG. 2, and then zinc coproporphyrin-I in 3 kinds of tissues (tumor, back and muscle) was measured with excitation at 405 nm and fluorescence at 580 nm.

[3] = Photophysical characteristics: absorption spectrum; type: physicochemical
Source text: Measurement of Photophysical Characteristics of Zinc Coproporphyrin-I

[4] = Photophysical characteristics: generation of singlet oxygen (near infrared emission); type: physicochemical; conditions: excitation at 563 nm, emission at 1270 nm in near infrared light
Source text: Also, the generation of singlet oxygen was confirmed with excitation at 563 nm and emission at 1270 nm in near infrared light.

DNA = DNA breakage under light irradiation; type: biochemical; conditions: under the irradiation of 350 nm light
Source text: (§1) Thus, after systemic administration of these compounds systemically, cancer tissues can be selectively killed, and the cancer can be treated without side effects by irradiating light only on the cancer tissues. Therefore, these compounds can be used as photodynamic therapy agents not only for surface cancer types (for example, breast cancer, skin cancer, esophageal cancer) but also deep cancer types (for example, gastric cancer, lung cancer).

[5] = Anti-cellular activity with and without light irradiation, in vitro system using mice; type: cell-based
Source text: as §1

HeLa tumor = experiment: Drug efficacy of the agent for photodynamic therapy: laser irradiation of HeLa tumor in nude mouse, HE-stained sections; conditions: 203 mg/kg i.v.; YAG-Dye laser 580 nm after 28 minutes, 100 J/cm^2; tumors excised 24 hours after irradiation
Procedure: To the back of a (BALB/c) nude mouse, 5×10^6 HeLa cells in 0.1 ml were intradermally transplanted. […] The wavelength was 580 nm. The light was emitted horizontally to the side of the tumor. To observe the necrosis layer, the tumors were excised out at 24 hours after the laser irradiation, fixed in 20% formaldehyde solution and embedded in paraffin. Sections were prepared, stained with HE and observed.

C=CC1=C(C)C2=CC3=C(/C=C/NO)C(C)(O)C(=CC4=NC(=CC5=NC(=CC1=N2)C(C)=C5CCC(=O)N[C@@H](CC(=O)[O-])C(=O)[O-])C(CCC(=O)N[C@@H](CC(=O)[O-])C(=O)[O-])=C4C)N3.[Na+].[Na+].[Na+].[Na+] (stereo partly shown) [ATX-S10 (Na)]
complete excretion period from the body [1]: 7 to 8 h

coproporphyrin-III
toxic effect on cancer cells compared to that of hematoporphyrin (cancer cells): superior toxic effect

zinc coproporphyrin-I
time until excreted out of the body [2]: 3 to 4 days
absorption peaks [3]: 403 nm and 535 nm and 571 nm
generation of singlet oxygen [4]: confirmed
DNA breakage (DNA): can break DNA efficiently
anti-cellular activity under the irradiation of light ([5]; irradiation of light which induces DNA cleavage): strong anti-cellular activity
anti-cellular activity by themselves ([5]; without light irradiation): do not demonstrate any anti-cellular activity
cells appearing to be dead (HeLa tumor): about 10 % of the total cells
histological observations after light irradiation of the HeLa tumor (HeLa tumor): thrombus formation in the capillary vessels and hemorrhage inside of the tissues; also recorded: anucleated cells, chromatin condensed cells and cells with ruptured vacuoles were seen
